Source: patent US5998476A, “Synthetic polyunsaturated fatty acid analogues” (Peptide Technology Limited, priority 1994, dated 1999)
Read-outs that look alike come from different tables or passages of the source.

Legend:
[1] = system: chloroquine-resistant P. falciparum strain K; assay: Inhibition of chloroquine-resistant P. falciparum strain K (direct anti-malarial activity); format: cell-based; settings: All PUFA at 11μm
[2] = system: peripheral blood mononuclear cells; assay: PHA-induced proliferation of peripheral blood mononuclear cells (thymidine incorporation); format: cell-based; settings: Homo sapiens, PBMC, read-out: % INHIBITION OF PROLIFERATION
Protocol: Mononuclear cells were separated from peripheral blood of normal human donors as described by Ferrante and Thong (1978 . . . ). The mononuclear cells were resuspended in RPMI-1640 containing 20% human AB serum and placed into 96 well microtrays (50 μl per well, cell density 4×10^6 cells/ml). Fatty acid was then added in 50 μl and pre-incubated with the cells for 30 min at 37° C. in 5% CO2. Mitogen (PHA, ConA, PWM. Staph, Aureus) was then added in 100 μl and the cells incubated for 66 hours at 37° C. in 5% CO2 before the addition of tritiated thymnidine (1 μCi/well). After a total of 72 h in culture, the cells were harvested and proliferation (thymidine incorporation) and supernatants assayed for the presence of cytokines.

SMILES | % INHIBITION of P. falciparum [1] | inhibition at 20 µM ([2]; All PUFA at 20μM, PHA-induced) | inhibition at 20 µM [2]
CC/C=C\C/C=C\C/C=C\C/C=C\C/C=C\C/C=C\CCC(=O)NCC(=O)O [docosahexaenoic acid-glycine-OH, Docosahexaenoic acid-glycine-OH] | 84.9% | 16.6% | 
CC/C=C\C/C=C\C/C=C\CCCCCCCC(=O)NCC(=O)O [α-linolenic acid-glycine-OH, Linolenic Acid-Glycine-OH] | 81.5% | 29% | 
CC/C=C\C/C=C\C/C=C\C/C=C\C/C=C\C/C=C\CCC(=O)N[C@@H](CC(=O)O)C(=O)O [docosahexaenoic acid-aspartic acid-OH, Docosahexaenoic Acid-Aspartic Acid-OH] |  | 21.1% | 
CC/C=C\C/C=C\C/C=C\C/C=C\C/C=C\CCCC(=O)N[C@@H](CC(=O)O)C(=O)O [eicosapentaenoic acid-aspartic acid-OH, Eicosapentaenoic acid-aspartic acid-OH] |  | 20.7% | 
CCCCC/C=C\C/C=C\C/C=C\CCCCC(=O)NCC(=O)O [γ-linolenic acid-glycine-OH, Gamma Linolenic Acid-Glycine-OH] |  | 15.6% | 
CCCCC/C=C\C/C=C\C/C=C\CCCCC(=O)N[C@@H](CC(=O)O)C(=O)O [γ-linolenic acid-aspartic acid-OH, Gamma Linolenic-Aspartic Acid-OH] |  | 7.3% | 
CC/C=C\C/C=C\C/C=C\C/C=C\C/C=C\CCCC(=O)NCC(=O)O [eicosapentaenoic acid-glycine-OH, Eicosapentaenoic acid-glycine-OH] |  | 5.4% | 
CCCCC/C=C\C/C=C\C/C=C\C/C=C\CCCC(=O)NCC(=O)O [arachidonic acid-glycine-OH, Arachidonic Acid-Glycine-OH] | 84.2% |  | 8%
CCN(CC)CCCC(C)Nc1ccnc2cc(Cl)ccc12 (centres unmarked) [Chloroquine, reference compound] | 20.1% |  | 
CCCCC/C=C\C/C=C\C/C=C\C/C=C\CCCC(=O)N[C@@H](CC(=O)O)C(=O)O [arachidonic acid-aspartic acid-OH, Arachidonic-aspartic acid-OH] |  |  | 39.7%
CC/C=C\C/C=C\C/C=C\CCCCCCCC(=O)N[C@@H](CC(=O)O)C(=O)O [α-linolenic acid-aspartic acid-OH, Linolenic Acid-Aspartic Acid-OH] |  | 15.4% | 
